{"source": "paper PMC9250534", "about": "“Synthesis and direct assay of large macrocycle diversities by combinatorial late-stage modification at picomole scale” (Nature Communications, 2022)", "molecular_target": "MDM2 (Homo sapiens, UniProt Q00987)", "sequence (Q00987 whole entry)": "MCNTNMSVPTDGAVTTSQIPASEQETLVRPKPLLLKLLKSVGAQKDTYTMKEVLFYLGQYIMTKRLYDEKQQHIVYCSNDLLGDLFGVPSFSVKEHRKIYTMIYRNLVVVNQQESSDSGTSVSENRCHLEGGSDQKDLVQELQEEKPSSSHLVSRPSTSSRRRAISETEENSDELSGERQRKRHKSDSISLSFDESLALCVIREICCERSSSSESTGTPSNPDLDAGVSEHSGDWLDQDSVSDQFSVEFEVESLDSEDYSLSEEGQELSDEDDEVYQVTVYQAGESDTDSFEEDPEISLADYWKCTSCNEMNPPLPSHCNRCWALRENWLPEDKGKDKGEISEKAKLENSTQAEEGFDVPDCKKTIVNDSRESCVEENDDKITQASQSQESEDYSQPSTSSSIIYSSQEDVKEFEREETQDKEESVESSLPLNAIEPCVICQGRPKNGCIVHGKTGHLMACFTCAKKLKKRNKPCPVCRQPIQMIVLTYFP", "test": "MDM2 binding screen: displacement of fluorescent p53 peptide probe FP53 (fluorescence polarization)", "conditions": "for fraction fluorescent probe displaced, Screen: initial screen; for fraction fluorescent probe displaced, Screen / fraction fluorescent probe displaced, Replicate: crude macrocycle reactions", "summary_of_the_method": "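Macrocycle reaction products at a final 10 µM were tested for displacement of a p53-based fluorescent peptide from human MDM2. Fluorescence anisotropy (ex 485/em 535 nm) was read once per macrocycle at 25 °C.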", "key": {"[1]": {"conditions": "10 µM macrocycle concentration, crude acylated macrocycle (scaffold Mpa-AA1-AA2-AA3 x carboxylic acid), p53-based fluorescent peptide, human MDM2"}}, "note": "Numbered stars: 1 amine (or outer) side, 2 acyl side, 3 side chain; on linkers, the order of the positions; unused ones are H or OH. Bridge positions count the residues as written; N and C are the ends. Square brackets hold non-standard residues; d marks the D form. Peptide text beside a SMILES is read from it. * marks the point of attachment. ξ: configuration not given here. ξPro(4ξ-NHCOC6H4-4-Cl) = O=C(NC1CNC(C(=O)O)C1)c1ccc(Cl)cc1; 2Thenoyl(5-Cl) = O=C(c1ccc(Cl)s1)*; Pyrazinecarbonyl = O=C(c1cnccn1)*; X14 = O=C(C1(c2ccccc2)CCCCC1)*; Cysteamide = C(CS[*:3])N[*:1]; X13 = O=C(c1ccc2[nH]cnc2c1)*; X6 = O=C(c1ccc2nc[nH]c2c1)*; Ethoxyacetyl = CCOCC(=O)*; X1 = O=C(/C=C/c1ccccc1)*; Api = NC1(C(=O)O)CCNCC1; Dap = NC[C@H](N)C(=O)O; Bz = O=C(c1ccccc1)*; Mpa = O=C(O)CCS", "data": [{"molecule": "O=C1CCSSCCNC(=O)C2CC(NC(=O)c3ccc(Cl)s3)CN2C(=O)C2CCCN(C2)C(=O)C(Cc2ccccc2)N1", "note": "(stereo not drawn) [X F B4 D5 Acid 14]", "values": [{"measurement": "fraction fluorescent probe displaced, Screen", "setting": "Acid 14", "result": 0.08}, {"measurement": "fraction fluorescent probe displaced, Replicate", "setting": "Acid 14, replicate", "result": 0.0465}]}, {"molecule": "O=C1CCSSCCNC(=O)[C@@H]2CCCN2C(=O)[C@H](Cc2ccccc2)NC(=O)C2(CCN(C(=O)/C=C/c3ccccc3)CC2)N1", "note": "[X D6 F B1 Acid 91] ([Mpa][Api](X1)FP-Cysteamide; disulfide 1-C)", "values": [{"measurement": "fraction fluorescent probe displaced, Screen", "setting": "Acid 91", "result": -0.05}, {"measurement": "fraction fluorescent probe displaced, Replicate", "setting": "Acid 91, replicate", "result": -0.08}]}, {"molecule": "O=C1CCSSCCNC(=O)[C@H]2CCCN(C2)C(=O)C2(CCN(C(=O)c3ccc(Cl)s3)CC2)NC(=O)[C@H](Cc2ccccc2)N1", "note": "[X F D6 B4 Acid 14]", "values": [{"measurement": "fraction fluorescent probe displaced, Screen", "setting": "Acid 14", "result": 0.053}, {"measurement": "fraction fluorescent probe displaced, Replicate", "setting": "Acid 14, replicate", "result": 0.10}]}, {"molecule": "O=C(NC1CC2C(=O)N3CCCC3C(=O)NC(Cc3c[nH]c4ccccc34)C(=O)NCCSSCCC(=O)N2C1)c1ccc(Cl)cc1", "note": "(stereo not drawn) [X D5 B1 W Acid 25] ([Mpa][ξPro(4ξ-NHCOC6H4-4-Cl)]PW-Cysteamide; disulfide 1-C; configuration not given here)", "values": [{"measurement": "fraction fluorescent probe displaced, Screen", "setting": "Acid 25", "result": 0.25}, {"measurement": "fraction fluorescent probe displaced, Replicate", "setting": "Acid 25, replicate", "result": 0.15}]}, {"molecule": "O=C1CCSSCCNC(=O)C(Cc2ccccc2)NC(=O)C(CNC(=O)c2ccc(Cl)s2)NC(=O)c2cccc(c2)CN1", "note": "(stereo not drawn) [X B5 D3 F Acid 14]", "values": [{"measurement": "fraction fluorescent probe displaced, Screen", "setting": "Acid 14", "result": -0.00483}, {"measurement": "fraction fluorescent probe displaced, Replicate", "setting": "Acid 14, replicate", "result": 0.12}]}, {"molecule": "O=C1CCNC(=O)C2CC(NC(=O)c3ccc(Cl)cc3)CN2C(=O)CCSSCCNC(=O)C(Cc2c[nH]c3ccccc23)N1", "note": "(stereo not drawn) [X D5 B2 W Acid 25]", "values": [{"measurement": "fraction fluorescent probe displaced, Screen", "setting": "Acid 25", "result": 0.15}, {"measurement": "fraction fluorescent probe displaced, Replicate", "setting": "Acid 25, replicate", "result": 0.07}]}, {"molecule": "O=C(C=Cc1ccccc1)NC1CC2C(=O)NCc3cccc(c3)C(=O)NC(Cc3ccccc3)C(=O)NCCSSCCC(=O)N2C1", "note": "(stereo not drawn) [X D5 B5 F Acid 91]", "values": [{"measurement": "fraction fluorescent probe displaced, Screen", "setting": "Acid 91", "result": -0.05}, {"measurement": "fraction fluorescent probe displaced, Replicate", "setting": "Acid 91, replicate", "result": 0.07}]}, {"molecule": "O=C1CCSSCCNC(=O)[C@H](Cc2c[nH]c3ccccc23)NC(=O)[C@H](CNC(=O)c2ccc(Cl)cc2)NC(=O)c2cccc(c2)CN1", "note": "[X B5 D3 W Acid 25]", "values": [{"measurement": "fraction fluorescent probe displaced, Screen", "setting": "Acid 25", "result": 0.25}, {"measurement": "fraction fluorescent probe displaced, Replicate", "setting": "Acid 25, replicate", "result": 0.30}]}, {"molecule": "O=C(NC[C@@H]1NC(=O)[C@@H]2CCCN2C(=O)CCSSCCNC(=O)[C@H](Cc2c[nH]c3ccccc23)NC1=O)c1ccccc1", "note": "[X-B1-D3-W + A1] ([Mpa]P[Dap](Bz)W-Cysteamide; disulfide 1-C)", "values": [{"measurement": "fraction fluorescent probe displaced", "setting": "[1]", "result": -0.005048}]}, {"molecule": "O=C1NCCSSCCC(=O)N2CCC[C@H]2C(=O)N[C@@H](CNC(=O)C2(c3ccccc3)CCCCC2)C(=O)N[C@H]1Cc1c[nH]c2ccccc12", "note": "[X-B1-D3-W + A98] ([Mpa]P[Dap](X14)W-Cysteamide; disulfide 1-C)", "values": [{"measurement": "fraction fluorescent probe displaced", "setting": "[1]", "result": 0.6683}]}, {"molecule": "O=C(/C=C/c1ccccc1)NC[C@@H]1NC(=O)[C@@H]2CCCN2C(=O)CCSSCCNC(=O)[C@H](Cc2c[nH]c3ccccc23)NC1=O", "note": "[X B1 D3 W Acid 91] ([Mpa]P[Dap](X1)W-Cysteamide; disulfide 1-C)", "values": [{"measurement": "fraction fluorescent probe displaced, Screen", "setting": "Acid 91", "result": 0.11}, {"measurement": "fraction fluorescent probe displaced, Replicate", "setting": "Acid 91, replicate", "result": 0.07}]}, {"molecule": "O=C1CCSSCCNC(=O)[C@H](Cc2ccccc2)NC(=O)[C@H]2CCCN(C2)C(=O)C2(CCN(C(=O)c3ccc(Cl)s3)CC2)N1", "note": "[X D6 B4 F + Acid 14]", "values": [{"measurement": "fraction fluorescent probe displaced", "setting": "crude reaction of macrocycle scaffold with Acid 14, (initial screen)", "result": -0.00483}, {"measurement": "fraction fluorescent probe displaced", "setting": "crude reaction of macrocycle scaffold with Acid 14, replicate", "result": 0.10}]}, {"molecule": "O=C1CCSSCCNC(=O)C2CN(C(=O)C=Cc3ccccc3)CCN2C(=O)c2cccc(c2)CNC(=O)C(Cc2ccccc2)N1", "note": "(stereo not drawn) [X F B5 D7 Acid 91]", "values": [{"measurement": "fraction fluorescent probe displaced, Screen", "setting": "Acid 91", "result": -0.10}, {"measurement": "fraction fluorescent probe displaced, Replicate", "setting": "Acid 91, replicate", "result": -0.0333}]}, {"molecule": "CCOCC(=O)NC[C@@H]1NC(=O)[C@@H]2CCCN2C(=O)CCSSCCNC(=O)[C@H](Cc2ccccc2)NC1=O", "note": "[X-B1-D3-F + A104] ([Mpa]P[Dap](Ethoxyacetyl)F-Cysteamide; disulfide 1-C)", "values": [{"measurement": "fraction fluorescent probe displaced", "setting": "[1]", "result": 0.09201}]}, {"molecule": "O=C1CCNC(=O)[C@H](Cc2ccccc2)NC(=O)[C@H](CNC(=O)c2ccc(Cl)s2)NC(=O)CCSSCCN1", "note": "[X D3 F B2 Acid 14]", "values": [{"measurement": "fraction fluorescent probe displaced, Screen", "setting": "Acid 14", "result": 0.053}, {"measurement": "fraction fluorescent probe displaced, Replicate", "setting": "Acid 14, replicate", "result": 0.10}]}, {"molecule": "O=C1NC(Cc2ccccc2)C(=O)N2CCN(C(=O)c3ccc(Cl)cc3)CC2C(=O)NCCSSCCC(=O)N2CCCC12", "note": "(stereo not drawn) [X B1 F D7 Acid 25]", "values": [{"measurement": "fraction fluorescent probe displaced, Screen", "setting": "Acid 25", "result": 0.0244}, {"measurement": "fraction fluorescent probe displaced, Replicate", "setting": "Acid 25, replicate", "result": 0.12}]}, {"molecule": "O=C(NC[C@@H]1NC(=O)[C@@H]2CCCN2C(=O)CCSSCCNC(=O)[C@H](Cc2c[nH]c3ccccc23)NC1=O)c1ccc2nc[nH]c2c1", "note": "[X-B1-D3-W + A6] ([Mpa]P[Dap](X6)W-Cysteamide; disulfide 1-C)", "values": [{"measurement": "fraction fluorescent probe displaced", "setting": "[1]", "result": 0.2779}]}, {"molecule": "O=C(/C=C/c1ccccc1)NC[C@@H]1NC(=O)c2cccc(c2)CNC(=O)[C@H](Cc2ccccc2)NC(=O)CCSSCCNC1=O", "note": "[X F B5 D3 Acid 91]", "values": [{"measurement": "fraction fluorescent probe displaced, Screen", "setting": "Acid 91", "result": -0.05}, {"measurement": "fraction fluorescent probe displaced, Replicate", "setting": "Acid 91, replicate", "result": 0.04}]}, {"molecule": "O=C1CCSSCCNC(=O)[C@@H]2C[C@H](NC(=O)c3ccc(Cl)s3)CN2C(=O)[C@H](Cc2ccccc2)NC(=O)c2cccc(c2)CN1", "note": "[X B5 F D5 Acid 14]", "values": [{"measurement": "fraction fluorescent probe displaced, Screen", "setting": "Acid 14", "result": 0.0241}, {"measurement": "fraction fluorescent probe displaced, Replicate", "setting": "Acid 14, replicate", "result": -0.00432}]}, {"molecule": "O=C(/C=C/c1ccccc1)NC[C@@H]1NC(=O)[C@H](Cc2c[nH]c3ccccc23)NC(=O)CCSSCCNC(=O)c2cccc(c2)CNC1=O", "note": "[X W D3 B5 Acid 91]", "values": [{"measurement": "fraction fluorescent probe displaced, Screen", "setting": "Acid 91", "result": 0.0563}, {"measurement": "fraction fluorescent probe displaced, Replicate", "setting": "Acid 91, replicate", "result": 0.17}]}, {"molecule": "O=C1CCNC(=O)C2(CCN(C(=O)c3ccc(Cl)cc3)CC2)NC(=O)[C@H](Cc2c[nH]c3ccccc23)NC(=O)CCSSCCN1", "note": "[X W D6 B2 Acid 25]", "values": [{"measurement": "fraction fluorescent probe displaced, Screen", "setting": "Acid 25", "result": 0.0244}, {"measurement": "fraction fluorescent probe displaced, Replicate", "setting": "Acid 25, replicate", "result": 0.0465}]}, {"molecule": "O=C1CCSSCCNC(=O)C2(CCN(C(=O)c3ccc(Cl)cc3)CC2)NC(=O)[C@H](Cc2c[nH]c3ccccc23)NC(=O)CCN1", "note": "[X B2 W D6 Acid 25]", "values": [{"measurement": "fraction fluorescent probe displaced, Screen", "setting": "Acid 25", "result": 0.0244}, {"measurement": "fraction fluorescent probe displaced, Replicate", "setting": "Acid 25, replicate", "result": 0.0211}]}, {"molecule": "O=C1CCSSCCNC(=O)C2(CCN(C(=O)c3ccc(Cl)cc3)CC2)NC(=O)[C@H](Cc2ccccc2)NC(=O)CCN1", "note": "[X B2 F D6 Acid 25]", "values": [{"measurement": "fraction fluorescent probe displaced, Screen", "setting": "Acid 25", "result": -0.17}, {"measurement": "fraction fluorescent probe displaced, Replicate", "setting": "Acid 25, replicate", "result": 0.0465}]}, {"molecule": "O=C(NC[C@@H]1NC(=O)[C@@H]2CCCN2C(=O)CCSSCCNC(=O)[C@H](Cc2c[nH]c3ccccc23)NC1=O)c1cnccn1", "note": "[X-B1-D3-W + A2] ([Mpa]P[Dap](Pyrazinecarbonyl)W-Cysteamide; disulfide 1-C)", "values": [{"measurement": "fraction fluorescent probe displaced", "setting": "[1]", "result": 0.03807}]}, {"molecule": "O=C1NC(Cc2c[nH]c3ccccc23)C(=O)NCCSSCCC(=O)N2CCN(C(=O)c3ccc(Cl)cc3)CC2C(=O)NCc2cccc1c2", "note": "(stereo not drawn) [X D7 B5 W Acid 25]", "values": [{"measurement": "fraction fluorescent probe displaced, Screen", "setting": "Acid 25", "result": 0.22}, {"measurement": "fraction fluorescent probe displaced, Replicate", "setting": "Acid 25, replicate", "result": 0.20}]}, {"molecule": "O=C(NC[C@@H]1NC(=O)[C@@H]2CCCN2C(=O)CCSSCCNC(=O)[C@H](Cc2ccccc2)NC1=O)c1ccc2[nH]cnc2c1", "note": "[X-B1-D3-F + A6] ([Mpa]P[Dap](X13)F-Cysteamide; disulfide 1-C)", "values": [{"measurement": "fraction fluorescent probe displaced", "setting": "[1]", "result": -0.003922}]}, {"molecule": "O=C1CCSSCCNC(=O)[C@H](CNC(=O)c2ccc(Cl)s2)NC(=O)[C@@H]2CCCN2C(=O)[C@H](Cc2c[nH]c3ccccc23)N1", "note": "[X W B1 D3 Acid 14] ([Mpa]WP[Dap](2Thenoyl(5-Cl))-Cysteamide; disulfide 1-C)", "values": [{"measurement": "fraction fluorescent probe displaced, Screen", "setting": "Acid 14", "result": 0.14}, {"measurement": "fraction fluorescent probe displaced, Replicate", "setting": "Acid 14, replicate", "result": 0.22}]}]}
